Results reported in patent US6472415B1, “Androgen receptor suppressors in the therapy and diagnosis of prostate cancer, alopecia and other hyper-androgenic syndromes” (priority 1998, dated 2002).
Like-named read-outs stand apart in the source and are kept apart here.

Key:
AR = target: T1, AR (Homo sapiens, UniProt P10275); assay: Interaction of non-radioactive iodine compounds with AR; conditions: compounds containing non-radioactive iodine
T1 sequence (P10275 1-920): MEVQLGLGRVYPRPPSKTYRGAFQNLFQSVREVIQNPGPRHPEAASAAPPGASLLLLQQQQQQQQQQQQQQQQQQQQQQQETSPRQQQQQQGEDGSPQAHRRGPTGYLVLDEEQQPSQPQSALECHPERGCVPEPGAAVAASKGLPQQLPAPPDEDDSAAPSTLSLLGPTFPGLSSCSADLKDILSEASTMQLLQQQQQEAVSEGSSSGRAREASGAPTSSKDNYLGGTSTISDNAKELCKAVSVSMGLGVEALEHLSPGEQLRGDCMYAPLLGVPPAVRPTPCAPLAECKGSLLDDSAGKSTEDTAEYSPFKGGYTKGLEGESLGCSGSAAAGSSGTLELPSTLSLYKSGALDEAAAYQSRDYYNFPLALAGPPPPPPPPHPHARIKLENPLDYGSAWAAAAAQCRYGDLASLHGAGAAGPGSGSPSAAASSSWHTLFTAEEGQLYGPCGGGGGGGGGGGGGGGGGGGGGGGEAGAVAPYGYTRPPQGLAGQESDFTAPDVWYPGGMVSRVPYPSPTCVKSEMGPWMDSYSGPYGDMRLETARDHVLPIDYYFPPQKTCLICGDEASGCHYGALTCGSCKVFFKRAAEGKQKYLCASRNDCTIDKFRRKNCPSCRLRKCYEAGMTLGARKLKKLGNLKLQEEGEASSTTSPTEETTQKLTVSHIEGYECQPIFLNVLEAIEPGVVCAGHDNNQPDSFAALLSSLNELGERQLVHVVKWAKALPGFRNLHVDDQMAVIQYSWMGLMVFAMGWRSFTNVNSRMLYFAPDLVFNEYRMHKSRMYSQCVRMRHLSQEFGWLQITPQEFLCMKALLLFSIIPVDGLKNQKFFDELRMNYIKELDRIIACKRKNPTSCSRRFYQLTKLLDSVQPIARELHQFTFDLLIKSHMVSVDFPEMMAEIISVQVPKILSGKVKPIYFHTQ

[1] = Systemic toxicity, repeated i.p. injection in mice; type: in vivo; conditions: i.p.
Procedure: Systemic toxicity was orientationally evaluated by i.p. injection every 2nd day in mice. […] For BP-34, the corresponding values were 150 mg/kg bw and 300 mg/kg bw.
The maximum tolerated dose should thus be approximately 300 mg/kg. For BP-34, i.p. injections of 100-300 mg/kg produce no mortalities in mice. […] Therefore, the maximum tolerated dose of BP-34 should be approximately 250 mg/kg.

[2] = four rabbits, topically twice daily (0.6 mg/kg-day), ten days; limit of detection approximately 10 ng/ml
Procedure: (§1) Serum samples were collected at 2, 5 and 21 hours after the first application, and once every other day, thereafter. Serum samples were processed and analyzed by HPLC.

[3] = rabbits, topical twice daily, ten days
Procedure: as §1
The rabbits were also observed daily for signs of cutaneous irritation.

[4] = probit analysis
[5] = male and female Wistar rats, highest dose tested
[6] = Permadi et al. 1993; cited from earlier work

Structure (SMILES): CC1(C)C(=O)N(c2ccc(C#N)c(C(F)(F)F)c2)C(=S)N1C/C=C/I [BP-305, 4-[3′-trans-(2″-propenyl-3″-iodo)-4′,4′-dimethyl-5′-oxo-2′-thioxo-1-imidazolidinyl]-2-trifluoromethylbenzonitrile]
- Interaction with AR as compared to controls (AR): shown to interact with AR

Structure (SMILES): CC(O)(CNC(=O)C(F)(F)F)C(=O)Nc1ccc([N+](=O)[O-])c(C(F)(F)F)c1 (stereo not shown) [BP-766, 4-nitro-3-trifluoromethyl-N-(2′-hydroxy-2′-methyl-3′-N-(trifluoromethylamido)propionyl) aniline]
- Maximum tolerated dose [1]: approximately 300 mg/kg
- LD50 (daily dose for seven days that resulted in 50% mortality) ([1]; daily for seven days): 450 mg/kg bw
- BP-766 and/or BP-34 in serum after topical application [2]: No. BP-766 or BP-34 were found in any of the samples
- Signs of cutaneous irritation [3]: No signs of irritation
- Effect on effluvium of the frontal hairline (androgenic alopecia; six volunteers (4 male, 2 female), 2% solution, 1 ml twice daily, after 2 weeks): arrested the effluvium of the frontal hairline in all six volunteers
- Dermal irritation (androgenic alopecia; six volunteers, 2% solution in anhydrous isopropanol, 1 ml twice daily (0.6 mg/kg), 8 weeks): no dermal irritation
- Regrowth (androgenic alopecia; two volunteers, after 4 months use): evident regrowth
- % BP-766 (60/40 EtOH/H2O, 55° C., 0 hours): 100%
- % BP-766 (60/40 EtOH/H2O, 55° C., 24 hours): 98.1%
- % BP-766 (60/40 EtOH/H2O, 55° C., 48 hours): 98.2%
- % BP-766 (60/40 EtOH/H2O, RT, 0 hours): 100%
- % BP-766 (60/40 EtOH/H2O, RT, 24 hours): 99.9%
- % BP-766 (60/40 EtOH/H2O, RT, 48 hours): 99.69%
- % BP-766 (Isopropanol (3-5% water), 55° C., 0 hours): 100%
- % BP-766 (Isopropanol (3-5% water), 55° C., 6 hours): 99.6%
- % BP-766 (Isopropanol (3-5% water), 55° C., 24 hours): 99.1%
- % BP-766 (Isopropanol (3-5% water), 55° C., 144 hours): 98.7%
- % BP-766 (anhydrous isopropanol, 50° C., 0 weeks): 100%
- % BP-766 (anhydrous isopropanol, 50° C., 1 week): 99.6%
- % BP-766 (anhydrous isopropanol, 50° C., 2 weeks): 99.4%
- % BP-766 (anhydrous isopropanol, 50° C., 3 weeks): 99.3%
- % BP-766 (anhydrous isopropanol, 50° C., 4 weeks): 99.2%
- % BP-766 (anhydrous isopropanol, 50° C., 5 weeks): 98.9%
- % BP-766 (anhydrous isopropanol, 50° C., 6 weeks): 98.8%
- % BP-766 (anhydrous isopropanol, 50° C., 7 weeks): 98.3%
- % BP-766 (anhydrous isopropanol, 50° C., 8 weeks): 98.4%
- LD50, acute oral ([4]; female NMRI mice): 2232.0 mg/kg
- LD50, acute oral ([4]; male NMRI mice): 2871.7 mg/kg
- LD50, acute oral [5]: > 2500 mg/kg body weight

Structure (SMILES): O=C(O)C(F)(F)F [trifluoroacetic acid]
- Toxicity when fed to mice [6]: no toxicity
